BindingDB's records for doi:10.7270/Q2CV4GM1 (D3R/Abbott, 2015)
Several values for one entry are separate records, joined by “and”; a condition that tells them apart may be missing. Equal entries are not always repeated.

Molecular target: T1, Tyrosine-protein kinase SYK [355-635] (Homo sapiens, UniProt P43405)
T1 construct: 355-635
Test: SYK assay_HTRF

| SMILES | IC50 |
| --- | --- |
| NC(=O)c1cccc(Nc2nccc(Nc3cccc4[nH]ncc34)n2)c1 [3-{[4-(1H-indazol-4-ylamino)pyrimidin-2-yl]amino}benzamide] | 533 nM |
| NS(=O)(=O)c1cccc(Nc2nccc(Nc3cccc4[nH]ncc34)n2)c1 [3-{[4-(1H-indazol-4-ylamino)pyrimidin-2-yl]amino}benzene-1-sulfonamide] | 18 nM and 47.5 nM |
| O=C1Cc2cc(Nc3nccc(Nc4cccc5[nH]ncc45)n3)ccc2N1 [GTC000107A] | 180 nM and 71 nM and 80.7 nM and 115 nM |
| NC(=O)c1ccc(Nc2nccc(Nc3cccc4[nH]ncc34)n2)cc1 [GTC000108B] | 100 nM and 218 nM and 51.4 nM and 59.8 nM |
| Cc1cc(=O)[nH]c2cc(Nc3nccc(Nc4cccc5[nH]ncc45)n3)ccc12 [GTC000109A] | 53.6 nM |
| c1cc(Nc2ccnc(Nc3ccc4c(c3)CCO4)n2)c2cn[nH]c2c1 [GTC000111A] | 222 nM |
| c1cc(Nc2ccnc(Nc3ccc4nn[nH]c4c3)n2)c2cn[nH]c2c1 [GTC000112A] | 52.8 nM and 79.8 nM |
| c1cc(Nc2ccnc(Nc3cccc4[nH]ncc34)n2)c2cn[nH]c2c1 [GTC000113A] | 160 nM |
| CC(=O)N1CCc2cc(Nc3nccc(Nc4cccc5[nH]ncc45)n3)ccc21 [GTC000114A] | 206 nM |
| O=c1[nH]c2ccc(Nc3nccc(Nc4cccc5[nH]ncc45)n3)cc2[nH]1 [GTC000115A] | 78.3 nM |
| O=C1CCc2ccc(Nc3nccc(Nc4cccc5[nH]ncc45)n3)cc21 [GTC000116A] | 195 nM and 146 nM |
| O=C1CCCc2cc(Nc3nccc(Nc4cccc5[nH]ncc45)n3)ccc21 [GTC000117A] | 91.2 nM |
| COc1cc(Nc2nccc(Nc3cccc4[nH]ncc34)n2)cc(OC)c1 [GTC000118A] | 35.3 nM and 67.1 nM and 93.5 nM and 203 nM |
| O=C(O)c1cccc(Nc2nccc(Nc3cccc4[nH]ncc34)n2)c1 [GTC000119A] | 207 nM |
| c1cc(Nc2ccnc(Nc3ccc4ncsc4c3)n2)c2cn[nH]c2c1 [GTC000122A] | 40 nM and 53.5 nM |
| Cc1nc2ccc(Nc3nccc(Nc4cccc5[nH]ncc45)n3)cc2s1 [GTC000123A] | 60.1 nM and 88.5 nM |
| Cn1ncc2ccc(Nc3nccc(Nc4cccc5[nH]ncc45)n3)cc21 [GTC000124A] | 16.8 nM and 21.7 nM |
| O=C(O)Cc1cccc(Nc2nccc(Nc3cccc4[nH]ncc34)n2)c1 [GTC000125A] | 118 nM and 493 nM |
| c1cc(Nc2nccc(Nc3cccc4[nH]ncc34)n2)cc(-c2cc[nH]n2)c1 [GTC000126A] | 22.3 nM and 41.9 nM |
| COC(=O)c1cccc(Nc2nccc(Nc3cccc4[nH]ncc34)n2)c1 [GTC000127B] | 250 nM and 58.5 nM and 127 nM |
| CC(C)c1ccc(Nc2nccc(Nc3cccc4[nH]ncc34)n2)cc1 [GTC000128A] | 219 nM |

| SMILES | IC50 |
| --- | --- |
| c1cc(Nc2ccnc(Nc3ccc(N4CCOCC4)cc3)n2)c2cn[nH]c2c1 [GTC000129A] | 220 nM |
| c1cc(Nc2nccc(Nc3cccc4[nH]ncc34)n2)cc(-c2nnn[nH]2)c1 [GTC000130A] | 3.43 nM and 14.3 nM |
| N#Cc1cccc(Nc2nccc(Nc3cccc4[nH]ncc34)n2)c1 [GTC000131A] | 62.4 nM and 70.5 nM |
| FC(F)(F)c1cccc(Nc2nccc(Nc3cccc4[nH]ncc34)n2)c1 [GTC000132A] | 154 nM and 127 nM and 151 nM and 440 nM |
| O=C1NS(=O)(=O)c2cc(Nc3nccc(Nc4cccc5[nH]ncc45)n3)ccc21 [GTC000133A] | 17.3 nM and 44.6 nM |
| Cc1ncoc1-c1cccc(Nc2nccc(Nc3cccc4[nH]ncc34)n2)c1 [GTC000134A] | 29.2 nM and 49.8 nM and 66.1 nM and 130 nM |
| COc1ccc(Nc2nccc(Nc3cccc4[nH]ncc34)n2)cc1 [GTC000135A] | 179 nM and 225 nM and 243 nM and 923 nM |
| FC(F)(F)c1ccc(Nc2nccc(Nc3cccc4[nH]ncc34)n2)cc1 [GTC000136A] | 206 nM |
| c1cc(Nc2nccc(Nc3cccc4[nH]ncc34)n2)cc(-c2ccsc2)c1 [GTC000137A] | 94.2 nM and 162 nM and 160 nM and 353 nM |
| Oc1ccc(Nc2nccc(Nc3cccc4[nH]ncc34)n2)cc1 [GTC000138A] | 195 nM and 50.5 nM |
| N#Cc1ccc(Nc2nccc(Nc3cccc4[nH]ncc34)n2)cc1 [GTC000139A] | 211 nM |
| CNC(=O)COc1cccc(Nc2nccc(Nc3cccc4[nH]ncc34)n2)c1 [GTC000140A] | 36.3 nM and 45.7 nM and 37.4 nM and 80.7 nM |
| COc1ccc(Nc2nccc(Nc3cccc4[nH]ncc34)n2)cc1Cl [GTC000141A] | 140 nM and 145 nM and 284 nM and 612 nM |
| c1cc(Nc2ccnc(Nc3ccc4c(c3)CCC4)n2)c2cn[nH]c2c1 [GTC000142A] | 114 nM and 255 nM |
| O=C1Nc2cc(Nc3nccc(Nc4cccc5[nH]ncc45)n3)ccc2OC1(F)F [GTC000144A] | 13.5 nM and 104 nM |
| CC1(C)Oc2ccc(Nc3nccc(Nc4cccc5[nH]ncc45)n3)cc2NC1=O [GTC000145A] | 38.6 nM and 153 nM |
| CNC(=O)c1ccc(Nc2nccc(Nc3cccc4[nH]ncc34)n2)cc1 [GTC000146A] | 65.3 nM and 114 nM |
| O=S1(=O)Cc2ccc(Nc3nccc(Nc4cccc5[nH]ncc45)n3)cc2C1 [GTC000147A] | 60.5 nM and 109 nM |
| Cc1nc(-c2cccc(Nc3nccc(Nc4cccc5[nH]ncc45)n3)c2)no1 [GTC000148A] | 6.7 nM and 32 nM |
| O=C1Nc2ccc(Nc3nccc(Nc4cccc5[nH]ncc45)n3)cc2CO1 [GTC000149A] | 7.21 nM and 25.2 nM |
| CCN(CC)C(=O)c1ccc(Nc2nccc(Nc3cccc4[nH]ncc34)n2)cc1 [GTC000150A] | 315 nM |

Next, values leading:

| IC50 | SMILES |
| --- | --- |
| 68.5 nM and 88.5 nM | O=C1OCc2cc(Nc3nccc(Nc4cccc5[nH]ncc45)n3)ccc21 [GTC000152A] |
| 42.2 nM and 85.9 nM and 54.1 nM | O=S1(=O)NCc2cc(Nc3nccc(Nc4cccc5[nH]ncc45)n3)ccc21 [GTC000153A] |
| 22.3 nM and 41.5 nM | O=C1Cc2ccc(Nc3nccc(Nc4cccc5[nH]ncc45)n3)cc2N1 [GTC000154A] |
| 40.5 nM and 65.9 nM and 77.6 nM and 267 nM | c1cc(Nc2ccnc(Nc3ccc4c(c3)OCO4)n2)c2cn[nH]c2c1 [GTC000155A] |
| 18.7 nM and 33.6 nM | c1cc(Nc2nccc(Nc3cccc4[nH]ncc34)n2)cc(-c2cnco2)c1 [GTC000156A] |
| 5.4 nM and 15.2 nM | c1cc(Nc2nccc(Nc3cccc4[nH]ncc34)n2)cc(-c2nc3ccccc3[nH]2)c1 [GTC000157A] |
| 98.6 nM and 89.1 nM and 244 nM | Cn1c(=O)n(C)c2cc(Nc3nccc(Nc4cccc5[nH]ncc45)n3)ccc21 [GTC000158A] |
| 28.1 nM | Cc1cc(=O)[nH]c2ccc(Nc3nccc(Nc4cccc5[nH]ncc45)n3)cc12 [GTC000159A] |
| 48.4 nM and 76 nM | c1cc(Nc2ccnc(Nc3ccc4oncc4c3)n2)c2cn[nH]c2c1 [GTC000160A] |
| 110 nM and 94 nM and 245 nM | Cn1cnc2cc(Nc3nccc(Nc4cccc5[nH]ncc45)n3)ccc21 [GTC000162A] |
| 149 nM and 221 nM | Cc1ncoc1-c1ccc(Nc2nccc(Nc3cccc4[nH]ncc34)n2)cc1 [GTC000163A] |
| 58.5 nM and 86.1 nM and 214 nM | Cn1ncc2cc(Nc3nccc(Nc4cccc5[nH]ncc45)n3)ccc21 [GTC000164A] |
| 119 nM and 180 nM and 340 nM and 202 nM | c1cc(Nc2ccnc(Nc3ccc(-c4cnco4)cc3)n2)c2cn[nH]c2c1 [GTC000165A] |
| 242 nM | O=C1CNC(=O)N1c1ccc(Nc2nccc(Nc3cccc4[nH]ncc34)n2)cc1 [GTC000166A] |
| 233 nM | O=C1CNC(=O)N1c1cccc(Nc2nccc(Nc3cccc4[nH]ncc34)n2)c1 [GTC000167A] |
| 468 nM | Cc1nc2cc(Nc3nccc(Nc4cccc5[nH]ncc45)n3)ccc2s1 [GTC000168A] |
| 421 nM and 242 nM | O=c1ccc2cc(Nc3nccc(Nc4cccc5[nH]ncc45)n3)ccc2o1 [GTC000169A] |
| 573 nM | CN1C(=O)c2ccc(Nc3nccc(Nc4cccc5[nH]ncc45)n3)cc2C1=O [GTC000170A] |
| 506 nM | O=C1NC(=O)c2cc(Nc3nccc(Nc4cccc5[nH]ncc45)n3)ccc21 [GTC000171A] |
| 589 nM | CCN(C(C)=O)c1ccc(Nc2nccc(Nc3cccc4[nH]ncc34)n2)cc1 [GTC000172A] |
| 148 nM and 195 nM and 348 nM and 710 nM | c1ccc(COc2cccc(Nc3nccc(Nc4cccc5[nH]ncc45)n3)c2)cc1 [GTC000173A] |
